One test deals with T1, PP1α (PP1CA) (Oryctolagus cuniculus, UniProt P62139).
T1 construct: purchased New England Biolabs P0754
Briefly: Protein phosphatase test (PP1 activity, DiFMUP fluorescent substrate). To be noted: for IC50: PP1CA at 80 mU, fluorescent substrate (50 μM), molecules from 50 μM to 50 nM, read-out: PP1 Inhibition IC50. It counts as biochemical. On the procedure: FIG. 13 presents the graph showing the inhibition of the PP1Cα activity by compound 6 in vitro. PP1Cα (New England Biolabs, 30 mU/well) was incubated in the presence of compound 6 at different concentrations and a fluorescent substrate, diFMUP.
Determination of the 1050 was carried out with PP1CA at 80 mU in the presence of a fluorescent substrate
(50 μM) and different concentrations of molecules from 50 μM to 50 nM.
For the activity tests, PP1α (New England Biolabs # P0754) was used at a final concentration of 30 mU or 80 mU for the screening of all the analogues. 6,8-difluoro-4-methylumbelliferyl phosphate (DiFMUP, Invitrogen # D6567) was used as fluorescent substrate at a concentration of […]. All the tests were carried out in a final volume of 100 μl, at 37° C. in 96-microwell plates (Greiner #655096).
Compound 6, combretastatin A4 (CA-4) as well as all the analogues were diluted in 50 μl of PP1 buffer (100 mM Tris-HCl, pH 7.5, 4 mM DTT, 0.2 mM EDTA, 0.5 mM MnCl2) from 50 μM to 50 nM. Corresponding quantities of DMSO were added to control wells. PP1α (30 or 80 mU in 30 μl of PP1 buffer) was added to each well. After incubating for 15 minutes at AT, the substrate was added (in 20 μl of PP1 buffer). After incubating for 20 minutes at 37° C., the fluorescence was measured in a plate fluorometer at 355-460 nm in order to assay the phosphatase activity. The test was carried out three times in duplicate for each condition.

For another test, the system named is bovine brain tubulin. Put plainly: In vitro tubulin polymerization test (turbidimetry at 350 nm). Format: biochemical. As to conditions: molecules at 50 μM, calculated at t=3000 s, DMSO control = 100%. On the procedure: Tubulin was purified from bovine brain using the polymerization-depolymerization process described by (Castoldi M and Popov A V. Protein Expr Purif. 2003, 32(1): pp 83-8).
The in vitro tubulin polymerization tests (at 50 μM) were carried out in the presence of GTP 1 mM in BRB80 buffer (80 mM K-PIPES pH 6.8, 1 mM MgCl2, 1 mM EGTA) at 37° C. The tests were carried out in 96-microwell plates (half-wells) (Costar plates, Corning #3695), in triplicate with a final volume of 70 μl. Tubulin assembly was carried out in the presence of compound 6 or its analogues (all used at a concentration of 50 μM) and was monitored by turbidimetry measurement at 350 nm using a spectrophotometer (Spectramax More, Molecular Devices).
Measurement of the effect of a molecule on polymerization was calculated at t=3000 s taking the value of the control at the same time as being equal to 100%.

The test system of another test is HMEC cells. Put plainly: Proliferation of HMEC cells (GI50). Format: cell-based. To be noted: Homo sapiens, 120 h, 50 μM to 1 nM for 5 days. On the procedure: The HMECs were seeded at 10% confluence and incubated with the molecules at different concentrations (from 50 μM to 1 nM) for 5 days. The GI50 (50% Growth Inhibition) defines the concentration inducing a 50% reduction in proliferation with respect to the control.

Another test has as its system HeLa cells. Briefly: Indirect immunofluorescence: effect on HeLa cells (mitotic arrest, microtubule depolymerization). Format: cell-based, human. Details: key to Effect on Hela at 25 μM / Effect on Hela at 100 μM / Effect on Hela at 50 and 100 μM / Effect on Hela at 50 μM: —: −: no activity on the cells at 25 μM (if there is an effect at high concentrations, this is specified in the table).; *: weak activity (MA and/or slight depolymerization of the MTs and/or slight inhibition of proliferation),; **: average activity (MA and/or moderate depolymerization of the MTs and/or moderate inhibition of proliferation),; ***: strong activity (MA and/or pronounced depolymerization of the MTs and/or pronounced inhibition of proliferation),; ****: very strong activity (MA and/or very pronounced depolymerization of the MTs and/or strong inhibition of proliferation). As to conditions: 24 hours; for Effect on Hela at 25 μM: mitotic index and/or depolymerization of the MTs. The method, then: The cells were cultured on slides in 24-well plates and incubated for 24 hours with molecule 6 at different concentrations from 1 to 10 μM.
Corresponding quantities of DMSO were added to the culture medium in the control wells.
The cells were fixed in a solution of PBS with 4% paraformaldehyde (PFA) and 0.1% glutaraldehyde (GA), for 15 minutes and centrifuged at 300 g for the last 10 minutes of the fixing. The slides were rinsed in PBS and the free aldehyde groups were reduced by two successive 5-minute incubations in PBS containing 1 mg/ml of NaBH4.
After one washing with PBS then another with PBST (PBS with 0.5% triton-X-100), the cells are incubated for 30 minutes at ambient temperature with anti α-tubulin monoclonal antibody solution (DM1A clone, Sigma # T6199) diluted to 1:200 in PBST. After 3 10-minute washings with PBST, the cells are incubated for 30 minutes at ambient temperature in a solution of goat anti-mouse polyclonal antibodies coupled with Alexa 488 (1:1000, Molecular Probes # A-11029) and phalloidin coupled with Texas red to label the actin (1:2000, Molecular Probes # T7471), in PBST also containing Hoechst 33258 (1 μg/ml) for labelling the DNA. After 3 10-minute washings in PBST, the slides are mounted on plates in Fluorsave™ mounting medium (Calbiochem #345789) and are observed and analyzed using an Axiovert 200M inverted fluorescence microscope (Zeiss®). The images are produced with a Plan-Apochromat 63× oil objective (Zeiss®) by means of a Coolsnap HQ camera (Roper Scientifics®) and with Metamorph acquisition software (Universal Imaging™ Corporation).
In order to evaluate the effect of the analogues of compound 6 on PHFs and HeLa cells, the immunofluorescence technique described above was used and adapted to a 96-well dish format. The cells were seeded in glass-bottomed 96-well dishes and incubated for 24 hours in the presence of different concentrations of molecules from 100 μM to 50 nM. And in the same way as described above, the cells were fixed and immunolabelled. Analysis of the phenotypes as well as counting the mitotic cells were carried out with the same microscope but using a ×40 objective (Olympus). The molecules were compared with each other with respect to the mitotic arrest induced on PHFs and HeLa cells at 25 and 0.3 μM.
The mitotic index and/or the depolymerization of the MTs were evaluated at 25 μM.

Broadly, the IC50 is the concentration that inhibits the measured activity by half. Usually GI50 stands for the concentration at which growth is held to half of that of the control.

T1 sequence (P62139 whole entry): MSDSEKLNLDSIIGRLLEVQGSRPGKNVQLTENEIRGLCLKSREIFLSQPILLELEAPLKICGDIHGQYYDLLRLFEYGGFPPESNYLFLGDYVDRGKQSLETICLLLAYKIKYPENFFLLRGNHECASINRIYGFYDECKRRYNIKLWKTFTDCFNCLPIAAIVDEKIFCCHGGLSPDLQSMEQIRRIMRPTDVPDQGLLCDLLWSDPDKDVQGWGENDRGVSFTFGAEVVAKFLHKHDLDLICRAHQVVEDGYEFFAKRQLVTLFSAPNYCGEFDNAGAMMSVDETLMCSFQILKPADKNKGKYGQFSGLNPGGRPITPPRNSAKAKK

For the molecule `COc1ccc(-c2[nH]c(=O)c3cc(OC)ccc3c2N)cc1` [Compound 1, 4-amino-7-methoxy-3-(4-methoxyphenyl)isoquinolin-1(2H)-one], at PP1α (PP1CA), the IC50 was over 50 µM. In the test on bovine brain tubulin, the Tubulin polymerization inhibition entry was “— ((−) signifies that the molecule induces little or no tubulin assembly inhibition in vitro: 0+ or − −5% of the DMSO control.)”. For the same molecule, the GI50 with HMEC cells was in the range of 1 to 25 µM. Also, the “Effect on Hela at 25 μM” value with HeLa cells was “***”.

`Nc1c(-c2ccccc2)[nH]c(=O)c2ccccc12` [Compound 2]: the IC50 at PP1α (PP1CA) is over 50 µM. The Tubulin polymerization inhibition entry with bovine brain tubulin was “— ((−) signifies that the molecule induces little or no tubulin assembly inhibition in vitro: 0+ or − −5% of the DMSO control.)”. In the test on HMEC cells, this molecule had a GI50 of 25 to 50 µM. Besides, in the test with HeLa cells, the “Effect on Hela at 25 μM” value was “—”.

For the molecule `COc1ccc(-c2cc3ccc(OC)cc3c(=O)[nH]2)cc1` [Compound 4, 7-methoxy-3-(4-methoxyphenyl)isoquinolin-1(2H)-one], at PP1α (PP1CA), the IC50 is over 50 µM. Moreover, the Tubulin polymerization inhibition entry with bovine brain tubulin is “— ((−) signifies that the molecule induces little or no tubulin assembly inhibition in vitro: 0+ or − −5% of the DMSO control.)”. Also, the GI50 with HMEC cells was over 50 µM. In the test on HeLa cells, the “Effect on Hela at 25 μM” value was “—”; the “Effect on Hela at 50 and 100 μM” value is on record as “**”.

Consider `COc1ccc(-c2[nH]c(=O)c3cc(OC)ccc3c2-c2ccc(OC)cc2)cc1` [Compound 5], for which the IC50 at PP1α (PP1CA) was over 50 µM. The Tubulin polymerization inhibition entry with bovine brain tubulin is listed as “+++ ((+++) signifies that the molecule induces tubulin assembly inhibition in vitro of more than 50% with respect to the DMSO control.)”. In the test with HMEC cells, this molecule had a GI50 of 0.1 to 1 µM. Besides, the “Effect on Hela at 25 μM” value with HeLa cells was “***”.

Take `COc1ccc(-c2[nH]c(=O)c3ccccc3c2[N+](=O)[O-])cc1` [Compound 7]: on PP1α (PP1CA), the IC50 is over 50 µM. Also, the Tubulin polymerization inhibition entry in the test with bovine brain tubulin was “+ ((+) signifies that the molecule induces tubulin assembly inhibition in vitro comprised between 6 and 25% of the DMSO control.)”. The GI50 with HMEC cells lay in the range of 1 to 25 µM. Moreover, the “Effect on Hela at 25 μM” value with HeLa cells is “***”.

Consider `COc1ccc(-c2[nH]c(=O)c3ccccc3c2N)cc1` [Compound 8], for which the IC50 on PP1α (PP1CA) was over 50 µM. Also, the Tubulin polymerization inhibition result with bovine brain tubulin was “— ((−) signifies that the molecule induces little or no tubulin assembly inhibition in vitro: 0+ or − −5% of the DMSO control.)”. Also, the GI50 in the test on HMEC cells is over 50 µM. In addition, in the test with HeLa cells, the “Effect on Hela at 25 μM” value is “—”.

`COc1ccc2c(NC=O)c(-c3ccccc3)[nH]c(=O)c2c1` [Compound 9, N-(7-Methoxy-1-oxo-3-phenyl-1,2-dihydroisoquinoline-4-yl)methanamide]: at PP1α (PP1CA), the IC50 was over 50 µM. For the same molecule, the Tubulin polymerization inhibition entry with bovine brain tubulin was “— ((−) signifies that the molecule induces little or no tubulin assembly inhibition in vitro: 0+ or − −5% of the DMSO control.)”. Moreover, in the test with HMEC cells, the GI50 lay in the range of 25 to 50 µM. For the same molecule, in the test with HeLa cells, the “Effect on Hela at 25 μM” value was “—”; the “Effect on Hela at 50 and 100 μM” value was “**”.

Take `COc1ccc2c(N)c(-c3ccccc3)[nH]c(=O)c2c1` [Compound 10]: the IC50 at PP1α (PP1CA) is over 50 µM. Besides, in the test on bovine brain tubulin, the Tubulin polymerization inhibition result is “+ ((+) signifies that the molecule induces tubulin assembly inhibition in vitro comprised between 6 and 25% of the DMSO control.)”. Moreover, the GI50 in the test with HMEC cells was over 50 µM. Moreover, in the test with HeLa cells, the “Effect on Hela at 25 μM” value is “—”; the “Effect on Hela at 50 and 100 μM” value is “*”.

In the case of `COc1ccc(-c2[nH]c(=O)c3cc(OC)ccc3c2Cl)cc1` [Compound 14, 4-Chloro-7-methoxy-3-(4-methoxyphenyl)isoquinoline-1(2H)-one], on PP1α (PP1CA), the IC50 was over 50 µM. Besides, in the test with bovine brain tubulin, the Tubulin polymerization inhibition result was “+++ ((+++) signifies that the molecule induces tubulin assembly inhibition in vitro of more than 50% with respect to the DMSO control.)”. The molecule further had a GI50 in the test with HMEC cells of 25 to 50 µM. For the same molecule, the “Effect on Hela at 25 μM” value in the test with HeLa cells was “—”.

For `COc1ccc(-c2[nH]c(=O)c3cc(OC)ccc3c2O)cc1` [Compound 41, 4-Hydroxy-7-methoxy-3-(4-methoxyphenyl)isoquinolin-1(2H)-one], the IC50 on PP1α (PP1CA) was over 50 µM. In addition, in the test with bovine brain tubulin, the Tubulin polymerization inhibition result is on record as “— ((−) signifies that the molecule induces little or no tubulin assembly inhibition in vitro: 0+ or − −5% of the DMSO control.)”. In the test with HMEC cells, the GI50 is 1 to 25 µM. The “Effect on Hela at 25 μM” value with HeLa cells is listed as “—”.

Take `COc1ccc(-c2[nH]c(=O)c3cc(OC)ccc3c2NCCOCCO)cc1` [Compound 50, 4-(2-(2-hydroxyethoxy)ethylamino)-7-methoxy-3-(4-methoxyphenyl)isoquinolin-1(2H)-one]: on PP1α (PP1CA), the IC50 was over 50 µM. In addition, the Tubulin polymerization inhibition entry with bovine brain tubulin is recorded as “+++ ((+++) signifies that the molecule induces tubulin assembly inhibition in vitro of more than 50% with respect to the DMSO control.)”. Moreover, the GI50 with HMEC cells lay within 25 to 50 µM. Also, in the test on HeLa cells, the “Effect on Hela at 25 μM” value was “—”.

As to `O=c1[nH]c(-c2ccc(O)cc2)c(Cl)c2ccc(O)cc12` [Compound 56, 4-Chloro-7-hydroxy-3-(4-hydroxyphenyl)isoquinoline-1(2H)-one], on PP1α (PP1CA), the IC50 is 10 to 24 µM. For the same molecule, the Tubulin polymerization inhibition result in the test on bovine brain tubulin is “— ((−) signifies that the molecule induces little or no tubulin assembly inhibition in vitro: 0+ or − −5% of the DMSO control.)”. The same molecule yielded a GI50 in the test on HMEC cells of over 50 µM. Moreover, the “Effect on Hela at 25 μM” value with HeLa cells is listed as “—”. Also, in the test with HeLa cells (100 μM), the “Effect on Hela at 100 μM” value is “*”.

Consider `O=c1c2ccccc2cc(-c2ccccc2)n1Cc1ccc(O)cc1` [Compound 74, 2-(p-hydroxybenzyl)-3penylisoquinolin-1(2H)-one], for which the IC50 at PP1α (PP1CA) lay in the range of 10 to 24 µM. This molecule also came in with a GI50 in the test with HMEC cells of 25 to 50 µM. Also, the “Effect on Hela at 25 μM” value with HeLa cells was “—”. The “Effect on Hela at 50 μM” value in the test with HeLa cells (50 μM) is on record as “*”.

On to `COc1ccc(/C=C\c2cc(OC)c(OC)c(OC)c2)cc1O` [combretastatin A-4, reference compound], for which, at PP1α (PP1CA) (PP1Cα 30 mU/well, diFMUP, negative control), the “inhibition of PP1Cα activity in vitro” value is on record as “does not inhibit PP1 activity”.

These data come from patent US8883763B2 (Universite Joseph Fourier, priority 2010, dated 2014).
